Results published in patent US20230293512A1, “S100 PROTEINS AS NOVEL THERAPEUTIC TARGETS IN MYELOPROLIFERATIVE NEOPLASMS” (ERASMUS UNIVERSITY MEDICAL CENTER ROTTERDAM, priority 2020, published 2023).

Key:
S100A9 protein = target: T1, S100A9 protein (Homo sapiens, UniProt P06702); details: cited from earlier work
T1 sequence (P06702 1-114): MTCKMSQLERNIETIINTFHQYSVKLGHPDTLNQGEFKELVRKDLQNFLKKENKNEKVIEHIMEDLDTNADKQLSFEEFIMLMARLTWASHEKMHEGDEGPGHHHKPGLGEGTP

[1] = test system: mice developing JAK2(V617F)-mediated myelofibrosis; assay: Tasquinimod treatment of mice with JAK2(V617F)-induced myelofibrosis; type: in vivo; details: JAK2(V617F)-transplanted mice, 30 mg/kg/day in drinking water; for MPN-specific leukocytosis (white blood cell counts from peripheral blood) / splenomegaly (spleen weights normalized to mouse weight) / bone marrow fibrosis grade (reticulin grade): 30 mg/kg/day; for bone marrow fibrosis grade (reticulin grade): vehicle-treated mice developed grade 2-3 fibrosis and osteosclerosis
Procedure: Murine organs were fixed in 4% paraformaldehyde for 24 hours and transferred to 70% ethanol. Femurs were decalcified in 10% EDTA/Tris-HCl (pH 6.6) solution for 72 hours, dehydrated and paraffin embedded. H&E and reticulin staining were performed on 4 μm sections according to established routine protocols.
Blood was periodically collected from mice via submandibular bleeds into Microtainer tubes coated with K2EDTA (Becton Dickinson, NJ, USA) and complete blood counts were performed on a Horiba Scil Vet abc Plus hematology system.
For tasquinimod studies, WT recipient mice (n=7-10/group) were lethally irradiated (10.5 Gy) and received ckit^+ cells transduced with […] or JAK2^(WT) retroviral virus. Tasquinimod treatment (ABR-215050, Biorbyt) was administered via drinking water at 30 mg/kg/day dissolved in 3% sucrose in autoclaved water. Tasquinimod was first dissolved in DMSO and mixed with 3% sucrose, 2% PEG300 (Sigma) in water. Vehicle-treated groups received DMSO-, PEG300-treated water with 3% sucrose. Drinking bottles were renewed twice a week. Treatment was started at 5 weeks post-transplant until 10 post-transplant, and resumed at 13 weeks post-transplant until sacrifice at 20 weeks post-transplant. Mice were randomly assigned to transplant and treatment groups.
To further validate the role of S100A8/S100A9 in the fibrotic initiation and progression, the inventors sought to use a S100A9-inhibitor known as tasquinimod (ABR-215050) in mice developing JAK2(V617F)-mediated myelofibrosis. […] Tasquinimod treatment was administered via drinking water starting at 5 weeks post-transplant, until sacrifice at 20 weeks post-transplant with a treatment break at 10 weeks post-transplant to minimize deleterious effects on normal granulocyte function (FIG. 4A).

S100A8 and S100A9 = details: Stewart et al, Bone Marrow Res. 2018; cited from earlier work
[2] = weeks 5-10 and 13-20 post-transplant, vs vehicle
[3] = weeks 5-10 and 13-20 post-transplant, vs vehicle, listed as Tasquinimod

Compound	binding to S100A9 protein and effect on its interaction with TLR4 and RAGE receptors (S100A9 protein)	thrombocytosis (platelet counts in peripheral blood) [1, 2]	MPN-specific leukocytosis (white blood cell counts from peripheral blood) [1, 2]	splenomegaly (spleen weights normalized to mouse weight) [1, 2]	MPN-specific leukocytosis (white blood cell counts from peripheral blood) [1, 3]	splenomegaly (spleen weights normalized to mouse weight) [1, 3]	bone marrow fibrosis grade (reticulin grade) [1]	bone marrow fibrosis grade (reticulin grade) ([1]; listed as Tasquinimod)	S100A8 and S100A9 mRNA and protein levels (S100A8 and S100A9)
COc1cccc2c1c(O)c(C(=O)N(C)c1ccc(C(F)(F)F)cc1)c(=O)n2C [tasquinimod, 4-hydroxy-5-methoxy-N,1-dimethyl-2-oxo-N-[4-(trifluoromethyl)phenyl]-1,2-dihydroquinoline-3-carboxamide]	binds to S100A9 protein and impedes its interaction with TLR4 and RAGE receptors	did not develop thrombocytosis	did not develop MPN-specific leukocytosis	completely normalized	normalizes splenomegaly and leukocytosis	normalizes splenomegaly	reduced fibrosis grade	reduces fibrosis in bone marrow	–
Cc1sc2c(c1C)C(c1ccc(Cl)cc1)=N[C@@H](CC(=O)OC(C)(C)C)c1nnc(C)n1-2 [JQ1]	–	–	–	–	–	–	–	–	suppress S100A8 and S100A9 mRNA and protein levels
